Data taken from paper PMC8536124 (International Journal of Molecular Sciences, 2021).
Marks after values point to notes of the source that are not given here.

How the values were obtained:
SNB-75 = test: NCI-60 screening (SRB); assay type: cell-based, human; settings: five-dose; for GI50 / CC50: Homo sapiens; for CC50: read-out: LC50 (the source's name)
M14 = test: NCI-60 screening (SRB); assay type: cell-based, human; settings: five-dose; for GI50 / CC50: Homo sapiens; for CC50: read-out: LC50 (the source's name)
BAK gene, A375 = test: Gene expression by qRT-PCR; assay type: cell-based, human; settings: 1 μM, mean 2^∆∆Ct, DMSO 5.200
Excerpt: (§1) Apoptosis at the cellular level can be initiated through the mitochondrial intrinsic pathway, which involves the Bcl-2 family of genes that includes the anti-apoptotic Bcl-XL and Bcl-2, as well as the pro-apoptotic Bak and Bax members; the balance between the expressions of anti- and pro-apoptotic proteins ensures physiological cell death. In cancers, the alterations occurring in gene expressions due to down- or up-regulations may result in delayed apoptosis and malignant proliferation. Thus, active compounds that modify the abnormal expression of genes involved in the apoptotic process may successfully act as anticancer agents. We tested the effect of compounds 4 and 6 on the expression of anti-apoptotic (Bcl-XL and Bcl-2) and pro-apoptotic (Bak and Bax) genes (Table 4, Figure 8).
(§2) Total RNA was extracted using peqGold RNAPureTM Package (Peqlab Biotechnology GmbH, Erlangen, Germany) according to the manufacturer’s instructions, and a DS-11 spectrophotometer (DeNovix, Wilmington, DE, USA) was used to measure total concentration of RNA. Reverse transcription was performed using the Maxima® First Strand cDNA Synthesis Kit (Fermentas, St. Leon-Rot, Germany), and the mix was incubated in the Tadvanced biometra product line (Analytik Jena AG, Jena, Germany) with a thermal program of 25 °C for 10 min, 85 °C for 5 min. Quantitative real-time PCR was conducted in a Quant Studio 5 real-time PCR system, (Thermo Fisher Scientific, Inc., Waltham, MA, USA), with analysis being performed in 20 µL reactions containing Power SYBR-Green PCR Master Mix (Thermo Fisher Scientific, Inc.). Cycling conditions were: 95 °C for 10 s followed by 40 cycles of denaturing at 95 °C for 15 s, and annealing and extension at 60 °C for 1 min.

BAK gene, RPMI = test: Gene expression by qRT-PCR; assay type: cell-based, human; settings: 1 μM, mean 2^∆∆Ct, DMSO 4.163
Excerpt: as §1, §2

BAK gene, SK-Mel-28 = test: Gene expression by qRT-PCR; assay type: cell-based, human; settings: 1 μM, mean 2^∆∆Ct, DMSO 1.383
Excerpt: as §1, §2

BAX gene, A375 = test: Gene expression by qRT-PCR; assay type: cell-based, human; settings: 1 μM, mean 2^∆∆Ct, DMSO 4.063
Excerpt: as §1, §2

BAX gene, RPMI = test: Gene expression by qRT-PCR; assay type: cell-based, human; settings: 1 μM, mean 2^∆∆Ct, DMSO 3.040
Excerpt: as §1, §2

BAX gene, SK-Mel-28 = test: Gene expression by qRT-PCR; assay type: cell-based, human; settings: 1 μM, mean 2^∆∆Ct, DMSO 2.086
Excerpt: as §1, §2

Bcl-2 gene, A375 = test: Gene expression by qRT-PCR; assay type: cell-based, human; settings: 1 μM, mean 2^∆∆Ct, DMSO 2.216
Excerpt: as §1, §2

Bcl-2 gene, RPMI = test: Gene expression by qRT-PCR; assay type: cell-based, human; settings: 1 μM, mean 2^∆∆Ct, DMSO 4.063
Excerpt: as §1, §2

Bcl-2 gene, SK-Mel-28 = test: Gene expression by qRT-PCR; assay type: cell-based, human; settings: 1 μM, mean 2^∆∆Ct, DMSO 2.573
Excerpt: as §1, §2

Bcl-XL gene, A375 = test: Gene expression by qRT-PCR; assay type: cell-based, human; settings: 1 μM, mean 2^∆∆Ct, DMSO 4.550
Excerpt: as §1, §2

Bcl-XL gene, SK-Mel-28 = test: Gene expression by qRT-PCR; assay type: cell-based, human; settings: 1 μM, mean 2^∆∆Ct, DMSO 4.730
Excerpt: as §1, §2

chorioallantoic membrane [1] = test: Chorioallantoic membrane (CAM) angiogenesis assay; assay type: in vivo, chicken; settings: 1 µM in 0.5% DMSO
Description: CAM test also allows the assessment of a drug’s activity on tumor proliferation and distant metastasis, as well as drug toxicity. […] No anomalies were noticed in the angiogenic process after treatment with 0.5% DMSO in distilled water used as control.
The basic CAM assay protocol makes use of fertilized chicken eggs, incubated at 37 °C, under controlled humidity. On the third day of incubation (embryonic day of development, EDD), a small opening was made at one end of the eggs and 5–6 mL of albumen were removed, thus facilitating the separation of the chorioallantoic membrane. On EDD 4, a window was cut on the upper side of the egg and subsequently resealed, returning the specimens to the incubator. On EDD 7 (0 h), 10 µL of each test solution were administered inside a plastic ring previously applied on the intensely vascularized surface of the CAM [93]. All compounds were tested at a concentration of 1 µM in DMSO 0.5%, which also represented the control sample. All samples were daily applied in the same volume, for 72 h. For each analyzed sample, 5 eggs were used, and all samples were applied in triplicate. Macroscopic evaluation was daily performed in ovo by means of stereomicroscopy (ZEISS SteREO Discovery.V8, Göttingen, Germany), and all images were registered and processed by Axiocam 105 color, AxioVision SE64. Rel. 4.9.1 Software, (ZEISS Göttingen, Germany), ImageJ (ImageJ Version 1.50e, https://imagej.nih.gov/ij/index.html, accessed on 3 June 2021) and GIMP software (GIMP v 2.8, https://www.gimp.org/, accessed on 3 June 2021).

chorioallantoic membrane [2] = test: HET-CAM irritation assay; settings: for Irritation Score: 300 µL, 5 min, test compounds 1 µM, scale 0 to 21; for Type of Effect: Luepke scale
Description: In this assay, the irritation potential may range from 0 to 21, with 0 being non-irritant and 21 being the most irritant. […] The irritation score was established according to Luepke scale: 0–0.9 indicates non-irritant, 1–4.9 indicates weakly irritant, 5–8.9 indicates moderately irritant, while 9–21 means strongly irritant (Table 6) [88, 89].
The in vivo Hen’s Egg Chorioallantoic Membrane Test (HET-CAM) assay determines a potential irritant effect on the vascular plexus of the chorioallantoic membrane [94]. The HET-CAM method was carried out following ICCVAM recommendations published in November 2016 in Appendix G and adapted to our conditions [88, 95, 96]. Thus, a volume of 300 µL of control or test solution was applied and the modifications produced at the CAM level were monitored by means of stereomicroscopy (Discovery 8 Stereomicroscope, Zeiss), registering significant images (Axio CAM 105 color, Zeiss), before application after 5 min of contact with the samples. All images were processed using Zeiss ZEN software, Gimp 2.8, and ImageJ software.
Negative control was represented by distilled water and solvent control DMSO 0.5%, and positive control by sodium lauryl sulphate (SLS) 0.5% in distillate water. The test substances were tested in concentrations of 1 µM.
Finally, the following reactions were: hemorrhage—H (blood vessel bleeding), vascular lysis—L (disintegration of blood vessels), coagulation—C (intra- or extra-vascular protein denaturizing). A variety of analysis methods may be used to assess irritancy potential of test substances. One analysis method that has been used extensively is an irritation score (IS). The formula used to generate an IS value is:(1) IS=5×301−Sec H/300+7×300−Sec L/300+9×301−Sec C/300 where: H = hemorrhage; L = vessel lysis; C = coagulation; hemorrhage time (Sec H) = onset of hemorrhage reactions on CAM (in seconds); lysis time (Sec L) = onset of vessel lysis on CAM (in seconds); coagulation time (Sec C) = onset of coagulation formation on CAM (in seconds). Means values are obtained. […] The IS values range on a scale between 0 and 21.

[3] = Compound stability in cell culture media (TLC); settings: 5 μM in DMEM and EMEM, 72 h
Description: Prior to this assay, compound stability in cell culture media was evaluated after 72 h, using a thin-layer chromatography (TLC)-based protocol, with the necessary modifications [57, 58].
The stability of the assessed compounds in the culture media was evaluated by thin layer chromatography (TLC), this representing a viable and easy to achieve technique for this specific endpoint [57, 58]. […] The solutions were incubated for 72 h, after which the medium was extracted in CHCl3. […] The plate was successively developed with I2 vapors, UV light, and bromocresol green to determine various additional spots corresponding to some decomposition byproducts.

SR = test: NCI-60 screening (SRB); assay type: cell-based, human; settings: five-dose; for GI50 / CC50: Homo sapiens; for CC50: read-out: LC50 (the source's name)
Bcl-XL gene, RPMI = test: Gene expression by qRT-PCR; assay type: cell-based, human; settings: 1 μM, mean 2^∆∆Ct, DMSO 18.563
Excerpt: as §1, §2

[4] = EDD7 to EDD10, up to 72 h post-treatment

| SMILES | GI50 (SNB-75) | CC50 (SNB-75) | TGI (SNB-75) | GI50 (M14) | CC50 (M14) | TGI (M14) | Expression of BAK gene, Mean (BAK gene, A375) | Expression of BAK gene, Mean (BAK gene, RPMI) | Expression of BAK gene, Mean (BAK gene, SK-Mel-28) | Expression of BAX gene, Mean (BAX gene, A375) | Expression of BAX gene, Mean (BAX gene, RPMI) | Expression of BAX gene, Mean (BAX gene, SK-Mel-28) | Expression of Bcl-2 gene, Mean (Bcl-2 gene, A375) | Expression of Bcl-2 gene, Mean (Bcl-2 gene, RPMI) | Expression of Bcl-2 gene, Mean (Bcl-2 gene, SK-Mel-28) | Expression of Bcl-XL gene, Mean (Bcl-XL gene, A375) | Expression of Bcl-XL gene, Mean (Bcl-XL gene, SK-Mel-28) | effect on angiogenesis (CAM) (chorioallantoic membrane [1]; [4]) | Irritation Score (chorioallantoic membrane [2]) | Type of Effect (chorioallantoic membrane [2]) | also measured |
| --- | --- | --- | --- | --- | --- | --- | --- | --- | --- | --- | --- | --- | --- | --- | --- | --- | --- | --- | --- | --- | --- |
| CCN1CCN(C(=O)[C@]23CC[C@@H](C)[C@H](C)[C@H]2C2=CC[C@@H]4[C@@]5(C)CCC(=O)C(C)(C)[C@@H]5CC[C@@]4(C)[C@]2(C)CC3)CC1 [Compound 4, N-(3-oxo-ursan-12-en-28-oyl)-ethylpiperazine] | 1.03 µM | 17.2 µM | 3.82 µM | 0.794 µM | 3.28 µM | 1.61 µM | 0.706 *** | 156.243 *** | 101.820 ** | 0.270 *** | 0.460 ** | 0.023 *** | 0.7366 ** | 1.483 * | 0.083 * | 0.500 * | 0.086 *** | no alterations were noticed in terms of angiogenesis | 0 | Non-irritant | stability in cell culture media (TLC) [3]: no signs of decomposition |
| CCN1CCN(C(=O)[C@]23CCC(C)(C)C[C@H]2C2=CC[C@@H]4[C@@]5(C)C/C(=C/c6cccnc6)C(=O)C(C)(C)[C@@H]5CC[C@@]4(C)[C@]2(C)CC3)CC1 [Compound 6] |  |  |  | 1.6 µM | 6.2 µM | 3.15 µM | 0.516 *** | 11.853 ** | 91.283 *** | 0.590 *** | 0.640 ** | 0.140 *** | 1.166 | 0.236 *** | 0.083 ** | 0.300 | 0.003 *** | did not significantly alter the angiogenesis process | 0 | Non-irritant | GI50 (SR): 0.959 µM; CC50 (SR): > 100 µM; TGI (SR): 5.13 µM; Expression of Bcl-XL gene, Mean (Bcl-XL gene, RPMI): 1.050 *; effect on angiogenesis (CAM) (chorioallantoic membrane [1]; after 24 h): weak antiangiogenic process; stability in cell culture media (TLC) [3]: no signs of decomposition |
| CCN1CCN(C(=O)[C@]23CC[C@@H](C)[C@H](C)[C@H]2C2=CC[C@@H]4[C@@]5(C)C/C(=C/c6cccnc6)C(=O)C(C)(C)[C@@H]5CC[C@@]4(C)[C@]2(C)CC3)CC1 [Compound 9, N-(2-{3-Pyridinylidene}-3-oxoursan-12-en-28-oyl)-ethylpiperazine] | 1.57 µM | 39.9 µM | 8.91 µM |  |  |  |  |  |  |  |  |  |  |  |  |  |  |  |  |  | GI50 (SR): 2.18 µM; CC50 (SR): > 100 µM; TGI (SR): 6.35 µM |
